Reference: patent publication US20220313769A1, “NEW ANTIOXIDANT COMPOSITION FOR WOUND HEALING” (HISTOCELL, S.L., priority 2019, published 2022)

System: epithelial fibroblasts
Assay: In vitro wound healing assay or scratch assay
Format: cell-based
Settings: 0.001% lycopene compared to 5 mM NAC
Experimental: The in vitro wound healing assay or scratch assay measures the capacity of a product to stimulate cellular proliferation (epithelial fibroblasts or keratinocytes) and close a gash without cells in a cellular monolayer in the culture tissue. For the gash to be homogeneous in all the wells, the cells are seeded in wells containing silicone blocks of the same size, which prevent adhesion of the cells in the area occupied by the block. Thus, epithelial fibroblasts were seeded in 24-well plates with the silicone blocks or barriers. After incubating for 12 hours, the barriers were removed and the cells were incubated for 24-72 hours with medium that contained the components separately or combined [different concentrations of locust bean galactomannan (LBG, 0.2, 0.1 and 0.01%), lycopene (0.001%)] and acetylcysteine (NAC, 5 mM). The entire surface of the well covered by the cells or the number of cells was estimated based on the images obtained of the wells with different treatments.

SMILES: CC(C)=CCC/C(C)=C/C=C/C(C)=C/C=C/C(C)=C/C=C/C=C(C)/C=C/C=C(C)/C=C/C=C(\C)CCC=C(C)C [lycopene]
- Capacity of migration of the fibroblasts (FIG. 2B legend): higher capacity of migration
- In vitro healing (FIG. 2B): induced in vitro healing better
